From PMC7305236, “The atypical chemokine receptor ACKR3/CXCR7 is a broad-spectrum scavenger for opioid peptides” (Nature Communications, 2020)
Read-outs that look alike come from different tables or passages of the source.

Columns and labels:
Set-up in all cases: dose or concentration left out as unconfirmed
[1] = biological target: T1, CXCR1 (Homo sapiens, UniProt P25024); test: Figure S2a opioid peptide screen on chemokine receptors; assay type: cell-based
T1 construct: expressed in transfected cells
T1 sequence (P25024 1-350): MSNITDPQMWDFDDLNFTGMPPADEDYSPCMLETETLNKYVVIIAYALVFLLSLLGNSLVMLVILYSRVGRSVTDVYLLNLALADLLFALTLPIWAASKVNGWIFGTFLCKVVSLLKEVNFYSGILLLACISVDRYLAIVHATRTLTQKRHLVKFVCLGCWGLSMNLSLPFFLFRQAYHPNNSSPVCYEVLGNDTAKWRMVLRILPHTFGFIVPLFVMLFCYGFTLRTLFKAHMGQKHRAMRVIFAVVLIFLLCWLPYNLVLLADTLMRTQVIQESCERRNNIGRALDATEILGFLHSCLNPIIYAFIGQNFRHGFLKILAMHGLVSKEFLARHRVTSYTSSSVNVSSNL

[2] = biological target: ACKR3 (Homo sapiens, UniProt P25106); test: cell-based; conditions: read-out: ACKR3 activity, ctrl+ = 100, Figure S2a
[3] = biological target: T2, CCR9 (Homo sapiens, UniProt P51686); test: Figure S2a opioid peptide screen on chemokine receptors; assay type: cell-based
T2 construct: expressed in transfected cells
T2 sequence (P51686 1-369): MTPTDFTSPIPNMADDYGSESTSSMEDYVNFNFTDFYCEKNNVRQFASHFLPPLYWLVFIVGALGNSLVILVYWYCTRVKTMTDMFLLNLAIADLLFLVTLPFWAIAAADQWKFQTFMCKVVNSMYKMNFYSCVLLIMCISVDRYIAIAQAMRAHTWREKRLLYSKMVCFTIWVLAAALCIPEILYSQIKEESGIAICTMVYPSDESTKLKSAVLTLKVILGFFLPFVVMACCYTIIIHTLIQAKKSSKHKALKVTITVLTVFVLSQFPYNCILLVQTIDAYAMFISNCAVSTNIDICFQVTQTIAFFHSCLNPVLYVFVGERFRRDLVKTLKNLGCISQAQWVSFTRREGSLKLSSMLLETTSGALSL

[4] = biological target: T3, ACKR4 (Homo sapiens, UniProt Q9NPB9); test: as above; conditions: read-out: ACKR4 activity, ctrl+ = 100, Figure S2a
T3 sequence (Q9NPB9 1-350): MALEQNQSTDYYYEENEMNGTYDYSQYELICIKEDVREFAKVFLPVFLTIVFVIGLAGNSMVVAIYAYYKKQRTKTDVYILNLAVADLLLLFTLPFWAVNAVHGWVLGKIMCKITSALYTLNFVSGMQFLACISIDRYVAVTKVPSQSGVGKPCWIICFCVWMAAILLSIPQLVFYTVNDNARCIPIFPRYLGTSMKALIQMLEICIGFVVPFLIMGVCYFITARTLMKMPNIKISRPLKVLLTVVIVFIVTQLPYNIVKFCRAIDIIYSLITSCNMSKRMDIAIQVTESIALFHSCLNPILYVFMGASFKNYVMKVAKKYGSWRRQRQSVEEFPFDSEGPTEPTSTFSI

[5] = biological target: T4, CXCR3A (Homo sapiens, UniProt P49682); test: as above; assay type: cell-based
T4 construct: expressed in transfected cells; host or cells: U87 cells
T4 sequence (P49682 1-368): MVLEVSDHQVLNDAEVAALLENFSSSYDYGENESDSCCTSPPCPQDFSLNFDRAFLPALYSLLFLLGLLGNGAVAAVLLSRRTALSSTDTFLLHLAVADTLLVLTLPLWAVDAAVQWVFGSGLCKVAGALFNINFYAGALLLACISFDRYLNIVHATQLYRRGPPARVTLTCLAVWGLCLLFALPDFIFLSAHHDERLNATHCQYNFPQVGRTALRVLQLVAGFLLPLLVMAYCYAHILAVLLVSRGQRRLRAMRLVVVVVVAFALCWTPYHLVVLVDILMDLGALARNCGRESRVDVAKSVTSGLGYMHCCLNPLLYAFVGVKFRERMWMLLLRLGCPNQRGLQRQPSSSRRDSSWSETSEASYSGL

[6] = biological target: T5, ACKR2 (Homo sapiens, UniProt O00590); test: as above; assay type: cell-based
T5 construct: expressed in transfected cells; host or cells: U87 cells (human glioblastoma)
T5 sequence (O00590 1-384): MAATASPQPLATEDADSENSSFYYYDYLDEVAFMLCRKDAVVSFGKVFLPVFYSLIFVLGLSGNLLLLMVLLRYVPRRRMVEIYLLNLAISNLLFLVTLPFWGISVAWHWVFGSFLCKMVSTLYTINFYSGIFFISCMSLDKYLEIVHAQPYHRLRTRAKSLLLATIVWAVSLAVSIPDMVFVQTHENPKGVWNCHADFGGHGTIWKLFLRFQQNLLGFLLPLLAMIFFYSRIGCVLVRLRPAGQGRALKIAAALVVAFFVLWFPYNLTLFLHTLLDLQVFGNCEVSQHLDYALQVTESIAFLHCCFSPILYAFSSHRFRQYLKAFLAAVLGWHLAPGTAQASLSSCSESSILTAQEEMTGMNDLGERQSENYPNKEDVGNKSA

[7] = biological target: T6, CCR3 (Homo sapiens, UniProt P51677); test: as above; conditions: read-out: CCR3 activity, ctrl+ = 100, Figure S2a
T6 sequence (P51677 1-355): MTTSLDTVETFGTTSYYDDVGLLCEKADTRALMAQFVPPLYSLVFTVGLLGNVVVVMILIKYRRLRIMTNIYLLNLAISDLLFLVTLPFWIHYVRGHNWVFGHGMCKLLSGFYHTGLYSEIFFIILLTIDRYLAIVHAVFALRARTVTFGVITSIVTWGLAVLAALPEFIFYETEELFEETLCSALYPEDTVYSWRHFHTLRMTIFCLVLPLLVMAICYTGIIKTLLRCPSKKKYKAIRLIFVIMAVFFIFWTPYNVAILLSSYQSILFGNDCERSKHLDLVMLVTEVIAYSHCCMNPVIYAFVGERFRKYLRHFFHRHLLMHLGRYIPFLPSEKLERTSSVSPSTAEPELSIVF

[8] = replicate 1, read-out: CXCR1 activity, ctrl+ = 100
[9] = replicate 2, read-out: CXCR1 activity, ctrl+ = 100
[10] = replicate 3, read-out: CXCR1 activity, ctrl+ = 100
[11] = replicate 1, read-out: CCR9 activity, ctrl+ = 100
[12] = replicate 2, read-out: CCR9 activity, ctrl+ = 100
[13] = replicate 3, read-out: CCR9 activity, ctrl+ = 100
[14] = replicate 1, read-out: CXCR3A activity, ctrl+ = 100
[15] = replicate 2, read-out: CXCR3A activity, ctrl+ = 100
[16] = replicate 3, read-out: CXCR3A activity, ctrl+ = 100
[17] = replicate 1, read-out: ACKR2 activity, ctrl+ = 100
[18] = replicate 2, read-out: ACKR2 activity, ctrl+ = 100
[19] = replicate 3, read-out: ACKR2 activity, ctrl+ = 100

ACKR3, sequence (P25106 whole entry): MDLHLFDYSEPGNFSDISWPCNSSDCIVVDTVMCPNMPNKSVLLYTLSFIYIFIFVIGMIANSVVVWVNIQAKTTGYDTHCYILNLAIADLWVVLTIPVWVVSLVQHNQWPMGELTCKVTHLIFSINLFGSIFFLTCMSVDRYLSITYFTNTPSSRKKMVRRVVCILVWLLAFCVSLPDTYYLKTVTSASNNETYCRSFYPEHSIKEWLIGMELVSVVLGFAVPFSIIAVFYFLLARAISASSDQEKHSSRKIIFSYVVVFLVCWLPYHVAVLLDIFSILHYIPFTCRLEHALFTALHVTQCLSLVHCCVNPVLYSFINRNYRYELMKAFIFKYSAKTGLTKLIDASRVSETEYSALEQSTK

SMILES | activation [1, 8] [%] | activation [1, 9] [%] | activation [1, 10] [%] | activation ([2]; replicate 1) [%] | activation ([2]; replicate 2) [%] | activation ([2]; replicate 3) [%] | activation [3, 11] [%] | activation [3, 12] [%] | activation [3, 13] [%] | activation ([4]; replicate 1) [%] | activation ([4]; replicate 2) [%] | activation ([4]; replicate 3) [%] | activation [5, 14] [%] | activation [5, 15] [%] | activation [5, 16] [%] | activation [6, 17] [%] | activation [6, 18] [%] | activation [6, 19] [%] | activation ([7]; replicate 1) [%] | activation ([7]; replicate 2) [%] | also measured
CSCC[C@H](NC(=O)[C@H](Cc1ccccc1)NC(=O)CNC(=O)CNC(=O)[C@@H](N)Cc1ccc(O)cc1)C(=O)N[C@@H](CCCNC(=N)N)C(=O)N[C@@H](CCCNC(=N)N)C(=O)N[C@H](C(N)=O)C(C)C [Adrenorphin] | 0.451 | 0.739 | -0.427 | 111 | 55.3 | 84.5 | 0.345 | -0.997 | 2.74 | -1.94 | -1.88 | -0.895 | -0.787 | 0.214 | 3.64 | -9.62 | -28.7 | -0.924 | 10.9 | -10.8 | activation ([7]; replicate 3): 23.6%
CSCC[C@H](NC(=O)[C@H](Cc1ccccc1)NC(=O)CNC(=O)CNC(=O)[C@@H](N)Cc1ccc(O)cc1)C(=O)N[C@@H](CCCNC(=N)N)C(=O)N[C@@H](CCCNC(=N)N)C(=O)N[C@H](C(=O)NCC(=O)N[C@@H](CCCNC(=N)N)C(=O)N1CCC[C@H]1C(=O)N[C@@H](CCC(=O)O)C(=O)N[C@@H](Cc1c[nH]c2ccccc12)C(=O)N[C@@H](Cc1c[nH]c2ccccc12)C(=O)N[C@@H](CCSC)C(=O)N[C@@H](CC(=O)O)C(=O)N[C@@H](Cc1ccc(O)cc1)C(=O)N[C@@H](CCC(N)=O)C(=O)N[C@@H](CCCCN)C(=O)N[C@@H](CCCNC(=N)N)C(=O)N[C@@H](Cc1ccc(O)cc1)C(=O)NCC(=O)O)C(C)C [BAM22] | 0.211 | 0.0913 | -0.539 | 104 | 61.3 | 104 | -0.202 | -2.13 | 5.56 | -4.56 | -1.96 | 5.51 | 3.44 | 2.11 | 7.49 | -3.78 | -1.93 | -0.478 | 5.68 | -4.83 | activation ([7]; replicate 3): 17.9%
CC[C@H](C)[C@H](NC(=O)[C@H](CCCNC(=N)N)NC(=O)[C@H](CCCNC(=N)N)NC(=O)[C@H](CC(C)C)NC(=O)[C@H](Cc1ccccc1)NC(=O)CNC(=O)CNC(=O)[C@@H](N)Cc1ccc(O)cc1)C(=O)N[C@@H](CCCNC(=N)N)C(=O)N1CCC[C@H]1C(=O)N[C@@H](CCCCN)C(=O)N[C@@H](CC(C)C)C(=O)N[C@@H](CCCCN)C(=O)O [Dynorphin 1-13] | 0.218 | -1.21 |  | 136 | 52.9 |  | -2.31 | -1.58 |  | -2 | -4.85 |  | -2.15 | -8.16 |  | -0.369 | -39.6 |  | 5.05 | -11.6 | 
CC[C@H](C)[C@H](NC(=O)[C@H](CCCNC(=N)N)NC(=O)[C@H](CCCNC(=N)N)NC(=O)[C@H](CC(C)C)NC(=O)[C@H](Cc1ccccc1)NC(=O)CNC(=O)CN)C(=O)N[C@@H](CCCNC(=N)N)C(=O)N1CCC[C@H]1C(=O)N[C@@H](CCCCN)C(=O)N[C@@H](CC(C)C)C(=O)N[C@@H](CCCCN)C(=O)N[C@@H](Cc1c[nH]c2ccccc12)C(=O)N[C@@H](CC(=O)O)C(=O)N[C@@H](CC(N)=O)C(=O)N[C@@H](CCC(N)=O)C(=O)O [Dynorphin 2-17] | 0.572 | 0.136 |  | 72.7 | 26.1 |  | 1.95 | 0.179 |  | -1.91 | -4.71 |  | -4.16 | -10.2 |  | 12.5 | -37.2 |  | 12.7 | -19.1 | 
CC[C@H](C)[C@H](NC(=O)[C@H](CCCNC(=N)N)NC(=O)[C@H](CCCNC(=N)N)NC(=O)[C@H](CC(C)C)NC(=O)[C@H](Cc1ccccc1)NC(=O)CNC(=O)CNC(=O)[C@@H](N)Cc1ccc(O)cc1)C(=O)N[C@@H](CCCNC(=N)N)C(=O)N1CCC[C@H]1C(=O)N[C@@H](CCCCN)C(=O)N[C@@H](CC(C)C)C(=O)N[C@@H](CCCCN)C(=O)N[C@@H](Cc1c[nH]c2ccccc12)C(=O)N[C@@H](CC(=O)O)C(=O)N[C@@H](CC(N)=O)C(=O)N[C@@H](CCC(N)=O)C(=O)O [Dynorphin A] | 0.562 | 0.211 | 0.227 | 127 | 60.7 | 99 | 0.116 | -0.279 | 10.9 | -2.58 | -4.52 | 0.188 | -4.75 | -3.36 | 7.92 | 15.1 | -26 | 2.73 | 33.4 | -17 | activation ([7]; replicate 3): 43.5%
